From ChEMBL document CHEMBL5223154, “9-Demethoxy-medicarpin: A potential bone health supplement for the management of protein deficiency-induced bone loss in growing rats” (2023)
Activity calls are given as the source filed them. No cut-off for these calls is given here.

How the values were obtained:
Rattus norvegicus [1] = test: Effect on protein deficiency diet induced bone loss in Sprague-Dawley rat assessed as increase in bone mineral density at TFSP region of tibia at 10 mg, po supplemented with protein deficient diet for one month followed by compound treatment and measured after 4 weeks; format: functional, organism-based
Rattus norvegicus [2] = test: Effect on protein deficiency diet induced bone loss in Sprague-Dawley rat assessed as change in serum alkaline phosphatase level at 1 mg, po supplemented with protein deficient diet for one month followed by compound treatment and measured after 4 weeks; format: functional
Rattus norvegicus [3] = test: Effect on protein deficiency diet induced bone loss in Sprague-Dawley rat assessed as change in serum albumin level at 1 mg, po supplemented with protein deficient diet for one month followed by compound treatment and measured after 4 weeks; format: functional
Rattus norvegicus [4] = test: Effect on protein deficiency diet induced bone loss in Sprague-Dawley rat assessed as increase in bone mineral density at proximal head of tibia at 1 mg, po supplemented with protein deficient diet for one month followed by compound treatment and measured after 4 weeks; format: functional, organism-based
Rattus norvegicus [5] = test: Effect on protein deficiency diet induced bone loss in Sprague-Dawley rat assessed as change in serum creatinine level at 1 mg, po supplemented with protein deficient diet for one month followed by compound treatment and measured after 4 weeks; format: functional
Rattus norvegicus [6] = test: Effect on protein deficiency diet induced bone loss in Sprague-Dawley rat assessed as change in serum urea level at 10 mg, po supplemented with protein deficient diet for one month followed by compound treatment and measured after 4 weeks; format: functional
Rattus norvegicus [7] = test: Effect on protein deficiency diet induced bone loss in Sprague-Dawley rat assessed as increase in L3 vertebral bone mineral density at 1 to 10 mg, po supplemented with protein deficient diet for one month followed by compound treatment and measured after 4 weeks; format: functional, organism-based; settings: dose 1-10 mg
Mesenchymal stem cells = test: Induction of osteoblast differentiation in bone marrow mesenchymal stem cells isolated from Sprague-Dawley rat model of protein deficiency diet induced bone loss assessed as increase in mineralized nodule formation at 1 to 10 mg, po supplemented with protein deficient diet for one month followed by compound treatment and measured after 4 weeks by Alizarin Red-S staining based analysis; format: functional, organism-based; settings: dose 1-10 mg
Rattus norvegicus [8] = test: Effect on protein deficiency diet induced bone loss in Sprague-Dawley rat assessed as increase in bone mineral density at TFSP region of tibia at 1 mg, po supplemented with protein deficient diet for one month followed by compound treatment and measured after 4 weeks; format: functional, organism-based
Rattus norvegicus [9] = test: Effect on protein deficiency diet induced bone loss in Sprague-Dawley rat assessed as increase in global tibial bone mineral density at 10 mg, po supplemented with protein deficient diet for one month followed by compound treatment and measured after 4 weeks; format: functional, organism-based
Rattus norvegicus [10] = test: Effect on protein deficiency diet induced bone loss in Sprague-Dawley rat assessed as increase in L4 vertebral bone mineral density at 1 to 10 mg, po supplemented with protein deficient diet for one month followed by compound treatment and measured after 4 weeks; format: functional, organism-based; settings: dose 1-10 mg
Rattus norvegicus [11] = test: Effect on protein deficiency diet induced bone loss in Sprague-Dawley rat assessed as change in serum total protein level at 1 mg, po supplemented with protein deficient diet for one month followed by compound treatment and measured after 4 weeks; format: functional
Rattus norvegicus [12] = test: Effect on protein deficiency diet induced bone loss in Sprague-Dawley rat assessed as change in serum total protein level at 10 mg, po supplemented with protein deficient diet for one month followed by compound treatment and measured after 4 weeks; format: functional
Rattus norvegicus [13] = test: Effect on protein deficiency diet induced bone loss in Sprague-Dawley rat assessed as change in serum TGA level at 1 mg, po supplemented with protein deficient diet for one month followed by compound treatment and measured after 4 weeks; format: functional
Rattus norvegicus [14] = test: Effect on protein deficiency diet induced bone loss in Sprague-Dawley rat assessed as increase in L2 vertebral bone mineral density at 1 to 10 mg, po supplemented with protein deficient diet for one month followed by compound treatment and measured after 4 weeks; format: functional, organism-based; settings: dose 1-10 mg
Rattus norvegicus [15] = test: Effect on protein deficiency diet induced bone loss in Sprague-Dawley rat assessed as increase in global vertebral bone mineral density at 1 to 10 mg, po supplemented with protein deficient diet for one month followed by compound treatment and measured after 4 weeks; format: functional, organism-based; settings: dose 1-10 mg
Rattus norvegicus [16] = test: Effect on protein deficiency diet induced bone loss in Sprague-Dawley rat assessed as change in body weight at 1 mg, po supplemented with protein deficient diet for one month followed by compound treatment and measured twice a week for 4 weeks; format: functional
Rattus norvegicus [17] = test: Effect on protein deficiency diet induced bone loss in Sprague-Dawley rat assessed as change in femur length at 10 mg, po supplemented with protein deficient diet for one month followed by compound treatment and measured after 4 weeks; format: functional
Rattus norvegicus [18] = test: Effect on protein deficiency diet induced bone loss in Sprague-Dawley rat assessed as change in serum albumin level at 10 mg, po supplemented with protein deficient diet for one month followed by compound treatment and measured after 4 weeks; format: functional
Rattus norvegicus [19] = test: Effect on protein deficiency diet induced bone loss in Sprague-Dawley rat assessed as change in femur length at 1 mg, po supplemented with protein deficient diet for one month followed by compound treatment and measured after 4 weeks; format: functional
Rattus norvegicus [20] = test: Effect on protein deficiency diet induced bone loss in Sprague-Dawley rat assessed as change in serum urea level at 1 mg, po supplemented with protein deficient diet for one month followed by compound treatment and measured after 4 weeks; format: functional
Rattus norvegicus [21] = test: Effect on protein deficiency diet induced bone loss in Sprague-Dawley rat assessed as change in serum TGA level at 10 mg, po supplemented with protein deficient diet for one month followed by compound treatment and measured after 4 weeks; format: functional
Rattus norvegicus [22] = test: Effect on protein deficiency diet induced bone loss in Sprague-Dawley rat assessed as increase in bone mineral density at neck of femur at 10 mg, po supplemented with protein deficient diet for one month followed by compound treatment and measured after 4 weeks; format: functional, organism-based
Rattus norvegicus [23] = test: Effect on protein deficiency diet induced bone loss in Sprague-Dawley rat assessed as increase in global tibial bone mineral density at 1 mg, po supplemented with protein deficient diet for one month followed by compound treatment and measured after 4 weeks; format: functional, organism-based
Rattus norvegicus [24] = test: Effect on protein deficiency diet induced bone loss in Sprague-Dawley rat assessed as increase in L1 vertebral bone mineral density at 1 to 10 mg, po supplemented with protein deficient diet for one month followed by compound treatment and measured after 4 weeks; format: functional, organism-based; settings: dose 1-10 mg
Rattus norvegicus [25] = test: Effect on protein deficiency diet induced bone loss in Sprague-Dawley rat assessed as change in serum creatinine level at 10 mg, po supplemented with protein deficient diet for one month followed by compound treatment and measured after 4 weeks; format: functional
Rattus norvegicus [26] = test: Effect on protein deficiency diet induced bone loss in Sprague-Dawley rat assessed as increase in global femur bone mineral density at 10 mg, po supplemented with protein deficient diet for one month followed by compound treatment and measured after 4 weeks; format: functional, organism-based
Rattus norvegicus [27] = test: Effect on protein deficiency diet induced bone loss in Sprague-Dawley rat assessed as change in tibia length at 1 mg, po supplemented with protein deficient diet for one month followed by compound treatment and measured after 4 weeks; format: functional
Rattus norvegicus [28] = test: Effect on protein deficiency diet induced bone loss in Sprague-Dawley rat assessed as change in phosphate ion level in serum at 10 mg, po supplemented with protein deficient diet for one month followed by compound treatment and measured after 4 weeks; format: functional
Rattus norvegicus [29] = test: Effect on protein deficiency diet induced bone loss in Sprague-Dawley rat assessed as change in body weight at 10 mg, po supplemented with protein deficient diet for one month followed by compound treatment and measured twice a week for 4 weeks; format: functional
Rattus norvegicus [30] = test: Effect on protein deficiency diet induced bone loss in Sprague-Dawley rat assessed as change in phosphate ion level in serum at 1 mg, po supplemented with protein deficient diet for one month followed by compound treatment and measured after 4 weeks; format: functional
Rattus norvegicus [31] = test: Effect on protein deficiency diet induced bone loss in Sprague-Dawley rat assessed as change in tibia length at 10 mg, po supplemented with protein deficient diet for one month followed by compound treatment and measured after 4 weeks; format: functional
Rattus norvegicus [32] = test: Effect on protein deficiency diet induced bone loss in Sprague-Dawley rat assessed as change in serum alkaline phosphatase level at 10 mg, po supplemented with protein deficient diet for one month followed by compound treatment and measured after 4 weeks; format: functional
Rattus norvegicus [33] = test: Effect on protein deficiency diet induced bone loss in Sprague-Dawley rat assessed as increase in bone mineral density at midshaft of femur at 10 mg, po supplemented with protein deficient diet for one month followed by compound treatment and measured after 4 weeks; format: functional, organism-based
Rattus norvegicus [34] = test: Effect on protein deficiency diet induced bone loss in Sprague-Dawley rat assessed as increase in bone mineral density at proximal head of tibia at 10 mg, po supplemented with protein deficient diet for one month followed by compound treatment and […]; format: functional, organism-based

Oc1ccc2c(c1)OCC1c3ccccc3OC21 (stereo not given)
Activity (Rattus norvegicus [1]): Active | Activity (Rattus norvegicus [2]): 377.2 IU/L | Activity (Rattus norvegicus [3]): 1.11 g/dL | Activity (Rattus norvegicus [4]): inactive | Activity (Rattus norvegicus [5]): 0.2633 mg/dL | Activity (Rattus norvegicus [6]): 14.1333 mmol/L | Activity (Rattus norvegicus [7]): Active | Activity (Mesenchymal stem cells): Active | Activity (Rattus norvegicus [8]): inactive | Activity (Rattus norvegicus [9]): Active | Activity (Rattus norvegicus [10]): Active | Activity (Rattus norvegicus [11]): 48.9 g/L | Activity (Rattus norvegicus [12]): 64.7 g/L | Activity (Rattus norvegicus [13]): 17.8333 mg/dL | Activity (Rattus norvegicus [14]): Active | Activity (Rattus norvegicus [15]): Active | Activity (Rattus norvegicus [16]): 74.03 g | Activity (Rattus norvegicus [17]): 2.39 cm | Activity (Rattus norvegicus [18]): 1.45 g/dL | Activity (Rattus norvegicus [19]): 2.25 cm | Activity (Rattus norvegicus [20]): 11.3 mmol/L | Activity (Rattus norvegicus [21]): 23.9333 mg/dL | Activity (Rattus norvegicus [22]): Active | Activity (Rattus norvegicus [23]): inactive | Activity (Rattus norvegicus [24]): Active | Activity (Rattus norvegicus [25]): 0.2567 mg/dL | Activity (Rattus norvegicus [26]): Active | Activity (Rattus norvegicus [27]): 2.647 cm | Activity (Rattus norvegicus [28]): 7.576 mg/dL | Activity (Rattus norvegicus [29]): 79.7 g | Activity (Rattus norvegicus [30]): 4.346 mg/dL | Activity (Rattus norvegicus [31]): 2.8 cm | Activity (Rattus norvegicus [32]): 512.55 IU/L | Activity (Rattus norvegicus [33]): Active | Activity (Rattus norvegicus [34]): Active
